Patent US9045466B2, “Amidine compound or salt thereof” (priority 2011, dated 2015)
Converted amounts (≈) assume the structure as drawn. Counter-ions that a name gives are not always drawn.

System: Trichophyton rubrum NBRC 5467
Assay: Fungal susceptibility test, broth microdilution method (MIC)
Type: cell-based
Conditions: NBRC5467, 96 h, RPMI/MOPS pH 7.0, 35° C. for 4 days, visual, lowest concentration with approximately 80% growth inhibition, read-out: MIC (μg/mL) T. rubrum NBRC5467
Experimental: The fungal susceptibility tests on test substances were conducted by the broth microdilution method equivalent to Clinical and Laboratory Standards Institute method. The medium used in the susceptibility tests was RPMI1640 adjusted to pH 7.0 with 0.165 mol/L morpholinepropanesulfonic acid (MOPS) and 50% sodium hydroxide (RPMI/MOPS). Each test substance was dissolved in DMSO and serially diluted in 2-fold increments with DMSO on a 96-well microplate. Then, the dilutions were dispensed by 1 μL to a 96-well microplate. Candida albicans TIMM 1623 cultured overnight at 35° C. in Sabouraud's agar medium was suspended in sterile saline. The number of cells was counted under a biological microscope, and the fungal suspension was diluted with RPMI/MOPS to prepare the inoculum solution (approximately 1×10^3 cells/mL). Alternatively, Candida albicans TIMM 1623 stored at −80° C. was diluted with RPMI/MOPS to prepare the inoculum solution (approximately 1×10^3 CFU/mL). Aspergillus fumigatus TIMM 0063 stored at 5° C. was diluted with RPMI/MOPS to prepare the inoculum solution (approximately 1×10^4 CFU/mL). Trichophyton rubrum NBRC 5467 stored at 5° C. or −80° C. was diluted with RPMI/MOPS to prepare the inoculum solution (approximately 2×10^3 CFU/mL). The 199 μL of inoculum solution was dispensed to each well to prepare the microplate containing the designated concentrations of test substance, medium and fungal cells. Candida albicans and Aspergillus fumigatus were cultured at 35° C. for 2 days. Trichophyton rubrum was cultured at 35° C. for 4 days. After the completion of culture, MIC was determined by visual observation. The MICs of Candida albicans and Aspergillus fumigatus were set to the lowest concentration at which approximately 50% growth inhibition was seen, when compared with a growth control without the addition of the test substance. The MIC of Trichophyton rubrum was set to the lowest concentration at which approximately 80% growth inhibition was seen, when compared with a growth control without the addition of the test substance.

MIC [µg/mL] | SMILES
0.0156 (≈ 0.0348 µM) | CCN(C)/C=N/c1cc(C)c(Cc2nc(-c3ccc(C(=O)NC(C)C)cc3)cs2)cc1C [Example 98, 4-{2-[4-({(E)-[Ethyl(methyl)amino]methylidene}amino)-2,5-dimethylbenzyl]-1,3-thiazol-4-yl}-N-(propan-2-yl)benzamide]
0.0039 | CCN(C)/C=N/c1cc(C)c(Cc2nc(-c3ccc(S(C)(=O)=O)cc3)cs2)cc1C [Example 23, N′-[2,5-Dimethyl-4-{4-[4-(methylsulfonyl)phenyl]-1,3-thiazol-2-yl}methyl)phenyl]-N-ethyl-N-methylimidoformamide dihydrochloride]
0.0078 (≈ 0.0201 µM) | CCN(C)/C=N/c1cc(C)c(Cc2nc(NC(=O)OC(C)C)cs2)cc1C [Example 102, Propan-2-yl {2-[4-({(E)-[ethyl(methyl)amino]methylidene}amino)-2,5-dimethylbenzyl]-1,3-thiazol-4-yl}carbamate]
0.0078 (≈ 0.0185 µM) | CCN(C)/C=N/c1cc(C)c(Cc2nc(-c3ccc(C(=O)NC)cc3)cs2)cc1C [Example 41, 4-{2-[4-({(E)-[Ethyl(methyl)amino]methylidene}amino)-2,5-dimethylbenzyl]-1,3-thiazol-4-yl}-N-methylbenzamide]
0.0039 (≈ 0.0113 µM) | CCN(C)/C=N/c1cc(C)c(Cc2nc(OC(C)C)cs2)cc1C [Example 32, N′-(2,5-Dimethyl-4-{[4-(propan-2-yloxy)-1,3-thiazol-2-yl]methyl}phenyl)-N-ethyl-N-methylimidoformamide]
0.25 (≈ 0.593 µM) | COC(=O)CN(C)/C=N/c1cc(C)c(Cc2nc(-c3ccc(C)cc3)cs2)cc1C [Example 7, Methyl N-{(E)-[(2,5-dimethyl-4-{[4-(4-methylphenyl)-1,3-thiazol-2-yl]methyl}phenyl)imino]methyl}-N-methylglycinate]
0.0078 (≈ 0.0182 µM) | CCN(C)/C=N/c1cc(C)c(Cc2nc(C(O)c3ccc(Cl)cc3)cs2)cc1C (centres unmarked) [Example 38, N′-[4-({4-[(4-Chlorophenyl)(hydroxy)methyl]-1,3-thiazol-2-yl}methyl)-2,5-dimethylphenyl]-N-ethyl-N-methylimidoformamide]
0.0039 (≈ 0.00974 µM) | CCN(C)/C=N/c1cc(C)c(Cc2nc(C(=O)NC(C)(C)CC)cs2)cc1C [Example 86, 2-[4-({(E)-[Ethyl(methyl)amino]methylidene}amino)-2,5-dimethylbenzyl]-N-(2-methylbutan-2-yl)-1,3-thiazole-4-carboxamide]
0.0625 (≈ 0.149 µM) | CCN(C)/C=N/c1cc(C)c(Cc2nc(-c3ccc4c(c3)CNC4=O)cs2)cc1C [Example 89, N′-(2,5-Dimethyl-4-{[4-(1-oxo-2,3-dihydro-1H-isoindol-5-yl)-1,3-thiazol-2-yl]methyl}phenyl)-N-ethyl-N-methylimidoformamide]
0.0156 (≈ 0.0366 µM) | CCN(C)/C=N/c1cc(C)c(Cc2nc(C3CCC(C(=O)NC)CC3)cs2)cc1C (centres unmarked) [Example 87, 4-{2-[4-({(E)-[Ethyl(methyl)amino]methylidene}amino)-2,5-dimethylbenzyl]-1,3-thiazol-4-yl}-N-methylcyclohexanecarboxamide]
0.0156 (≈ 0.0391 µM) | CCN(C)/C=N/c1cc(C)c(Cc2nc(C(=O)NC3CCCC3)cs2)cc1C [Example 74, N-Cyclopentyl-2-[4-({(E)-[ethyl(methyl)amino]methylidene}amino)-2,5-dimethylbenzyl]-1,3-thiazole-4-carboxamide]
0.0625 (≈ 0.14 µM) | CCN(C)/C=N/c1cc(C)c(Cc2nc(-c3ccc(C(=O)N4CCC4)cc3)cs2)cc1C [Example 101, N′-[4-({4-[4-(Azetidin-1-ylcarbonyl)phenyl]-1,3-thiazol-2-yl}methyl)-2,5-dimethylphenyl]-N-ethyl-N-methylimidoformamide]
0.125 (≈ 0.318 µM) | CN/C=N/c1cc(C)c(Cc2nc(-c3ccc(C(=O)NC)cc3)cs2)cc1C [Example 95, 4-[2-(2,5-Dimethyl-4-{[(E)-(methylamino)methylidene]amino}benzyl)-1,3-thiazol-4-yl]-N-methylbenzamide]

Same assay, conditions: NBRC5467, 96 h, pH 7, read-out: MIC (μg/mL) T. rubrum NBRC5467

SMILES | MIC [µg/mL]
CCOC(=O)Nc1csc(Cc2cc(C)c(/N=C/N(C)CC)cc2C)n1 [Example 31, Ethyl {2-[4-({(E)-[ethyl(methyl)amino]methylidene}amino)-2,5-dimethylbenzyl]-1,3-thiazol-4-yl}carbamate dihydrochloride] | 0.0078
CCN(C)/C=N/c1cc(C)c(Cc2nc(C(=O)c3ccccc3)cs2)cc1C [Example 19, N′-(2,5-Dimethyl-4-{[4-(phenylcarbonyl)-1,3-thiazol-2-yl]methyl}phenyl)-N-ethyl-N-methylimidoformamide dihydrochloride] | 0.0156
CCN(C)/C=N/c1cc(C)c(Cc2nc(COC(C)C)cs2)cc1C [Example 63, N′-[2,5-Dimethyl-4-({4-[(propan-2-yloxy)methyl]-1,3-thiazol-2-yl}methyl)phenyl]-N-ethyl-N-methylimidoformamide dihydrochloride] | 0.0156
CCN(C)/C=N/c1cc(C)c(Cc2nc(-c3ccccc3)c(C(=O)c3ccccc3)s2)cc1C [Example 25, N′-(2,5-Dimethyl-4-{[4-phenyl-5-(phenylcarbonyl)-1,3-thiazol-2-yl]methyl}phenyl)-N-ethyl-N-methylimidoformamide dihydrochloride] | 0.0313
CCN/C=N/c1cc(C)c(Cc2nc(-c3cnc(C)cn3)cs2)cc1C [Example 105, N′-(2,5-Dimethyl-4-{[4-(5-methylpyrazin-2-yl)-1,3-thiazol-2-yl]methyl}phenyl)-N-ethylimidoformamide hydrochloride] | 0.0313
CCOC(=O)c1csc(Cc2cc(C)c(/N=C/N(C)CC)cc2C)n1 [Example 35, Ethyl 2-[4-({(E)-[ethyl(methyl)amino]methylidene}amino)-2,5-dimethylbenzyl]-1,3-thiazole-4-carboxylate] | 0.0313 (≈ 0.0871 µM)
CCN(C)/C=N/c1cc(C)c(Cc2nc(CS(=O)(=O)c3ccc(C)cc3)cs2)cc1C [Example 30, N′-{2,5-Dimethyl-4-[(4-{[(4-methylphenyl)sulfonyl]methyl}-1,3-thiazol-2-yl)methyl]phenyl}-N-ethyl-N-methylimidoformamide dihydrochloride] | 0.0625
CCN(C)/C=N/c1cc(C)c(Cc2nc(COC(C)=O)cs2)cc1C [Example 34, {2-[4-({(E)-[Ethyl(methyl)amino]methylidene}amino)-2,5-dimethylbenzyl]-1,3-thiazol-4-yl}methyl acetate dihydrochloride] | 0.0313
CCN(C)/C=N/c1cc(C)c(Cc2nc(NC(=O)OC3CCCCC3)cs2)cc1C [Example 97, Cyclohexyl {2-[4-({(E)-[ethyl(methyl)amino]methylidene}amino)-2,5-dimethylbenzyl]-1,3-thiazol-4-yl}carbamate hydrochloride] | 0.0078
CCN(C)/C=N/c1cc(C)c(Cc2nc(-c3cnc(C)cn3)cs2)cc1C [Example 37, N′-(2,5-Dimethyl-4-{[4-(5-methylpyrazin-2-yl)-1,3-thiazol-2-yl]methyl}phenyl)-N-ethyl-N-methylimidoformamide dihydrochloride] | 0.0039
CCN(C)/C=N/c1cc(C)c(Cc2nc(-c3ccc(C)cc3)cs2)nc1C [Example 47, N′-(2,5-Dimethyl-6-{[4-(4-methylphenyl)-1,3-thiazol-2-yl]methyl}pyridin-3-yl)-N-ethyl-N-methylimidoformamide dihydrochloride] | 0.0313
CCN(C)/C=N/c1cc(C)c(Cc2nc(C(=O)NC(C)(C)C(F)(F)F)cs2)cc1C [Example 109, 2-[4-({(E)-[Ethyl(methyl)amino]methylidene}amino)-2,5-dimethylbenzyl]-N-(1,1,1-trifluoro-2-methylpropan-2-yl)-1,3-thiazole-4-carboxamide hydrochloride] | 0.0039
CCN(C)/C=N/c1cc(C)c(Cc2nc(C3CC3)cs2)cc1C [Example 45, N′-{4-[(4-Cyclopropyl-1,3-thiazol-2-yl)methyl]-2,5-dimethylphenyl}-N-ethyl-N-methylimidoformamide dihydrochloride] | 0.0313
CCN(C)/C=N/c1cc(C)c(Cc2nc(-c3ccn(C)c(=O)c3)cs2)cc1C [Example 67, N′-(2,5-Dimethyl-4-{[4-(1-methyl-2-oxo-1,2-dihydropyridin-4-yl)-1,3-thiazol-2-yl]methyl}phenyl)-N-ethyl-N-methylimidoformamide dihydrochloride] | 0.0625
CCN(C)/C=N/c1cc(C)c(Cc2nc(-c3cncc(F)c3)cs2)cc1C [Example 21, N-Ethyl-N′-(4-{[4-(5-fluoropyridin-3-yl)-1,3-thiazol-2-yl]methyl}-2,5-dimethylphenyl)-N-methylimidoformamide trihydrochloride] | 0.0156
CCN(C)/C=N/c1cc(C)c(Cc2nc(C(=O)NC3CCC(F)(F)CC3)cs2)cc1C [Example 96, N-(4,4-Difluorocyclohexyl)-2-[4-({(E)-[ethyl(methyl)amino]methylidene}amino)-2,5-dimethylbenzyl]-1,3-thiazole-4-carboxamide hydrochloride] | 0.0313
